Measurements reported in patent US20240269145A1, “USE OF INDOLE COMPOUND AS INHIBITORS OF FERROPTOSIS” (MITOIMMUNE THERAPEUTICS INC., priority 2023, published 2024).

Experiments:
Format in all cases: cell-based
HT-22 cells = experiment: Cytosolic lipid ROS after erastin, Experimental Example 3-2; conditions: HT-22, erastin 1 μM, compound at 10 μM
Experimental: [The source words this procedure for another cell line and says it was used here with some conditions changed.] (§1) Experimental Example 3-1: To confirm the protective effect against cytosolic lipid reactive oxygen species in lung epithelial cells, 2×10^5 MLE-12 cells were dispensed into each well of a 12-well plate and cultured for 18 to 24 hours. Each well was treated with Example Compound 1 and ferrostatin-1, which were diluted so that their final concentration became 0.01, 0.1, 1, and 10 μM, and culture was performed for 15 minutes. Afterwards, the cells were treated so that the final concentration of RSL3 became 1 μM, and cultured for 2 hours. To confirm the inhibitory effect against cytosolic lipid reactive oxygen species, BODIPY™ 581/591 C11 (lipid peroxidation sensor) [Invitrogen™; D3861] was used. According to the manufacturer's experimental method, BODIPY™ 581/591 C11 was diluted in the cell culture medium so that the final concentration became 5 μM, and the cells were treated therewith and allowed to react for 30 minutes to perform fluorescent staining. The MLE-12 cells fluorescently stained with BODIPY™ 581/591 C11 were detached from the 12-well plate using 0.25% Trypsin-EDTA and transferred to a microtube, and the fluorescence (excitation/absorption 500 to 650 nm/510 to 665 nm) was measured using BD FACSLyric™ to calculate the rate of change compared to the control group. […]

PC-12 cells = experiment: Cytosolic lipid ROS after RSL3, Experimental Example 3-4; conditions: PC-12, RSL3 0.3 μM, 1 hr
Experimental: [The source words this procedure for another cell line and says it was used here with some conditions changed.] as §1

ARPE-19 cells = experiment: Cytosolic lipid ROS after RSL3, Experimental Example 3-5; conditions: ARPE-19, RSL3 0.3 μM, 2 hr
Experimental: [The source words this procedure for another cell line and says it was used here with some conditions changed.] as §1

H9C2 cells [1] = experiment: Cytosolic iron ion accumulation (FerroOrange, images) after erastin; conditions: H9C2, erastin 1 μM, 7 hours; Example Compound 1 1 μM, DFO 10 or 100 μM
Experimental: To confirm the inhibitory effect against cytosolic iron ion accumulation in adrenal medulla cells and cardiac cells, 3×10^5 PC-12 cells and H9C2 cells were each dispensed into a 35 mm confocal dish and cultured for 18 to 36 hours. Each well was treated with the Example Compound 1, which was diluted so that the final concentration became 1 μM, and with DFO, which was diluted so that the final concentration became 10 µM and 100 μM, and culture was performed for 20 to 30 minutes. Afterwards, the PC-12 cells and H9C2 cells were each treated with RSL3 and erastin so that their final concentration became 0.3 µM and 1 μM, respectively, and cultured for 1 hour and 7 hours. To confirm the inhibitory effect against cytosolic iron ion accumulation, FerroOrange [DOJINDO; F374] was used. According to the manufacturer's experimental method, FerroOrange was diluted in the cell culture medium so that the final concentration became 1 μM, and the cells were treated therewith. […] The cells fluorescently stained with FerroOrange were observed using a fluorescence microscope [Carl Zeiss; Axio Observer 7] to investigate the change in fluorescence (excitation/absorption 580 nm/543 nm) compared to the control group (RSL3 and erastin untreated group).

H9C2 cells [2] = experiment: Mitochondrial morphological changes (TEM) after erastin; conditions: H9C2, 5 μM erastin, 10 μM compound, 5 hours
Experimental: To confirm whether Example Compound 1 may inhibit mitochondrial morphological changes due to ferroptosis, an experiment was performed using a transmission electron microscope (TEM). To collect cardiac cell samples, 1.3×10^6 H9C2 cells were cultured in a 150 mm cell culture dish for 4 days, and the culture medium was replaced with fresh culture medium on the second day. After treating the cells with Example Compound 1 at a final concentration of 10 µM for 30 minutes, an erastin-only treatment group was treated with a culture medium including 5 μM erastin; an erastin-Example Compound 1 treatment group was treated with a culture medium including 5 μM erastin and 10 μM Example Compound 1; and the V.C group was treated with a culture medium including the same amount of DMSO, and each group was treated for 5 hours. Afterwards, the supernatant was discarded, and the cells were washed with a 37° C. PBS solution three times. 10 mL of a 2.5% glutaraldehyde solution diluted in PBS was added and treated at room temperature for 1 hour. After washing with PBS solution three times, the remaining PBS solution was completely removed using an aspirator. 1 mL of PBS solution was added to recover the cells with a plastic scraper, and the cells were transferred to a 1.5 mL tube. Cells were allowed to settle using a centrifuge (3000 rpm) for 5 minutes. […]

SMILES: O=S1(=O)CCN(Cc2cc(NC3CCOCC3)c3[nH]c(-c4ccccc4)cc3c2)CC1 [Example 1, 5-[(1,1-dioxido-4-thiomorpholinyl)methyl]-2-phenyl-N-(tetrahydro-2H-pyran-4-yl)-1H-indole-7-amine]
- cytosolic lipid reactive oxygen species increased by erastin (HT-22 cells): inhibited
- cytosolic lipid reactive oxygen species increased by erastin (HT-22 cells; 4 hours and 8 hours after treatment): effectively inhibited
- concentration at which cytosolic lipid reactive oxygen species were significantly decreased (PC-12 cells): 0.1 µM
- concentration at which lipid reactive oxygen species are inhibited (ARPE-19 cells): 0.01 µM
- cytosolic iron ion accumulation (images) (H9C2 cells [1]): decrease was confirmed
- mitochondrial morphological changes (size decrease, cristae loss, outer membrane collapse), TEM (H9C2 cells [2]): alleviated
